Test system: patients with atrial fibrillation or flutter
Assay: Placebo-controlled ascending dose study of intravenous tedisamil: conversion to normal sinus rhythm, overall (atrial fibrillation or flutter)
Assay type: in vivo, human
Details: for Conversion to NSR at any time within 2.5 hrs after start of infusion (%) / Conversion to NSR at any time within 2.5 hrs after start of infusion (converted/total): Overall, ITT patient sample, patients with DC cardioversion excluded
Procedure: A Multi-Center, Double-Blind, Randomized, Placebo-Controlled, Sequential Ascending Dose Groups Study to evaluate the Efficacy and Safety of Intravenous Tedisamil in the Rapid Conversion to Normal Sinus Rhythm in Patients with Atrial Fibrillation or Flutter was performed.
• Tedisamil (0.4 mg/kg body weight) • Tedisamil (0.6 mg/kg body weight) • Placebo • Dosages were given as a 30 minute intravenous infusion regimen. 1. Study Design
This multicenter trial was a double-blind, randomized, placebo-controlled, ascending dose groups study comparing the efficacy and safety of intravenous tedisamil treatment versus placebo in symptomatic patients with atrial fibrillation or flutter (>3 hours and <48 hours). The primary efficacy endpoint of this study was the termination of atrial fibrillation or flutter (for at least 60 seconds) within 2.5 hours after start of the infusion.
Following screening and baseline assessments, eligible patients were randomized to tedisamil or placebo with a sequential dose escalation approach. In the first stage, patients received 0.4 mg tedisamil/kg body weight or placebo over a 30 minutes infusion period, with half the dose infused during the first 10 minutes and half the dose infused over the remaining 20 minutes. After interim safety evaluation, in the second stage, patients received 0.6 mg tedisamil/kg body weight or placebo, with the same infusion regimen.
Patients were discharged from the telemetry unit 24 hours post infusion and safety follow up was to be obtained after 28 days. Blinded reviews of 12-lead ECGs (including 60 seconds rhythm strip) and 24 hour Holters to adjudicate the clinical endpoint (conversion to normal sinus rhythm) were performed centrally according to standard guidelines.
Tedisamil dihydrochloride, 0.4 mg/kg body weight, 0.6.mg/kg body weight was administered intravenously. The total infusion time was 30 minutes, with half the dose infused within 10 minutes, and half the dose infused within the remaining 20 minutes.
The percentage of patients converted to normal sinus rhythm (for at least 60 seconds) at any time within 2.5 hours after the initiation of the infusion of study drug.
The intent-to-treat patient sample was analyzed for efficacy. All tests were two-sided and a p-value <0.05 was considered significant. Differences in percentages of conversion were compared among the treatment groups using the Pearson chi-square statistic. Safety analysis was conducted on the safety patient sample. Numbers and percentages of patients with adverse events were calculated for each treatment group, using MedDRA preferred terms and body systems. Descriptive statistics were summarized by treatment group for changes from baseline in QT, heart rate and blood pressure.
This first clinical study was a Multi-Center, Double-Blind, Randomized, Placebo-Controlled, Sequential Ascending Dose Groups Study to evaluate the Efficacy and Safety of Intravenous Tedisamil in the Rapid Conversion to Normal Sinus Rhythm in Patients with Atrial Fibrillation or Flutter. The active ingredient used was tedisamil dihydrochloride. The study was designed as a phase II study and executed in 35 to 40 centers in 3 to 4 countries. Study duration: Screening: up to 48 hours; treatment (in-patient): single 30-minute infusion; safety follow up: 24 hours (in-patient) with continuous telemetry and 28 day safety follow up.
The following methodology was applied: A multi-center, double-blind, randomized, placebo-controlled, sequential ascending dose groups study to evaluate the efficacy and safety of intravenous tedisamil versus placebo. The study drug was infused over 30 minutes, receiving half the dose within 10 minutes and half the dose within the remaining 20 minutes. The first patient group received 0.4 mg/kg bodyweight (bw), infused as 0.2 mg/kg bw within 10 minutes, continued with 0.2 mg/kg bw infused within 20 minutes. […]

Which “Conversion to NSR at any time within 2.5 hrs after start of infusion (%)” value (shortened to “Conversion to NSR … (%)”) (Female, 0.4 mg/kg) does the source give for `C1CCC2(C1)C1CN(CC3CC3)CC2CN(CC2CC2)C1` [Tedisamil, N,N′-dicyclopropylmethyl-9,9-tetramethylene-3,7-diazabicyclo[3,3,1]nonane] here?
The value was 31.6%.

And the “Conversion to NSR at any time within 2.5 hrs after start of infusion (converted/total)” value (“Conversion to NSR … (converted/total)” for short) (Female, 0.4 mg/kg)?
The value was 6/19.

And the “Conversion to NSR … (%)” value (Female, 0.6 mg/kg)?
The value was 36.4%.

And the “Conversion to NSR … (converted/total)” value (Female, 0.6 mg/kg)?
Its value is 8/22.

What about the “Conversion to NSR … (%)” value (Male, 0.4 mg/kg) of the same compound?
The value was 45.2%.

And the “Conversion to NSR … (converted/total)” value (Male, 0.4 mg/kg)?
The value was 19/42.

What about the “Conversion to NSR … (%)” value (Male, 0.6 mg/kg) of the same compound?
Its value is 61.3%.

And the “Conversion to NSR … (converted/total)” value (Male, 0.6 mg/kg)?
The value was 19/31.

What about the “Gender difference in conversion rate” value (first study (Phase II), tedisamil dihydrochloride) of the same compound?
Its value is “male patients show a higher conversion rate compared to women”.

And the “Conversion rates on extension of infusion beyond the times indicated” value (in vivo)?
The value was “did not produce higher conversion rates”.

What about the “Average time to cardioversion after the start of tedisamil administration” value (patients with atrial fibrillation or flutter of up to 48 hours duration, iv two-step infusion) of the same compound?
Its value is 35 min.

What about the “Conversion of atrial fibrillation and flutter to NSR (in words)” value (two-step infusion regimen) of the same compound?
Its value is “effective in conversion of atrial fibrillation and flutter to NSR”.
